Experimental findings from patent US20220046923A1, “HERBICIDAL CINNOLINIUM COMPOUNDS” (SYNGENTA CROP PROTECTION AG, priority 2018, published 2022) are described below.

Holding throughout (assay): Post-emergence efficacy, glasshouse spray test
Type in all cases: in vivo

For one assay, the system named is Eleusine indica (ELEIN). Particulars: evaluated after 13 days; for pest or weed control at 500 g/ha / pest or weed control at 1000 g/ha: Eleusine indica, post-emergence, 312 h, read-out: Control of weed species ELEIN after post-emergence application (100=total damage to plant; 0=no damage to plant); for pest or weed control at 500 g/ha: application rate 500 g/Ha. The gist of the method: (§1)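 Plants sown in standard soil were grown 14 days in a glasshouse (24/16 °C day/night, 14 h light, 65% humidity) and then sprayed post-emergence. Compound in acetone/IF50 emulsifier mix was diluted in 0.25% or 1% Empicol ESC70 + 1% ammonium sulphate. Damage was scored after 13 days (0 = none, 100 = total).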

The test system of assay [1] is Amaranthus palmeri (AMAPA). Particulars: evaluated after 13 days; for pest or weed control at 500 g/ha / pest or weed control at 1000 g/ha: Amaranthus palmeri, post-emergence, 312 h, read-out: Control of weed species AMAPA after post-emergence application (100=total damage to plant; 0=no damage to plant); for pest or weed control at 500 g/ha: application rate 500 g/Ha. The gist of the method: as §1

Assay [2] has as its system Ipomoea hederacea (IPOHE). To be noted: evaluated after 13 days; for pest or weed control at 500 g/ha / pest or weed control at 1000 g/ha: Ipomoea hederacea, post-emergence, 312 h, read-out: Control of weed species IPOHE after post-emergence application (100=total damage to plant; 0=no damage to plant); for pest or weed control at 500 g/ha: application rate 500 g/Ha. The gist of the method:
as §1

Assay [3] relates to Chenopodium album (CHEAL). To be noted: evaluated after 13 days; for pest or weed control at 500 g/ha / pest or weed control at 1000 g/ha: Chenopodium album, post-emergence, 312 h, read-out: Control of weed species CHEAL after post-emergence application (100=total damage to plant; 0=no damage to plant); for pest or weed control at 500 g/ha: application rate 500 g/Ha. The gist of the method: as §1

Assay [4] concerns Euphorbia heterophylla (EPHHL). Particulars: evaluated after 13 days; for pest or weed control at 500 g/ha / pest or weed control at 1000 g/ha: Euphorbia heterophylla, post-emergence, 312 h, read-out: Control of weed species EPHHL after post-emergence application (100=total damage to plant; 0=no damage to plant); for pest or weed control at 500 g/ha: application rate 500 g/Ha. The gist of the method: as §1

The subject of the next assay is Setaria faberi (SETFA). Particulars: evaluated after 13 days; for pest or weed control at 500 g/ha / pest or weed control at 1000 g/ha: Setaria faberi, post-emergence, 312 h, read-out: Control of weed species SETFA after post-emergence application (100=total damage to plant; 0=no damage to plant); for pest or weed control at 500 g/ha: application rate 500 g/Ha. The gist of the method: as §1

Assay [5] relates to Digitaria sanguinalis (DIGSA). Particulars: evaluated after 13 days; for pest or weed control at 500 g/ha / pest or weed control at 1000 g/ha: Digitaria sanguinalis, post-emergence, 312 h, read-out: Control of weed species DIGSA after post-emergence application (100=total damage to plant; 0=no damage to plant); for pest or weed control at 500 g/ha: application rate 500 g/Ha. In outline: as §1

Assay [6] concerns Echinochloa crus-galli (ECHCG). To be noted: evaluated after 13 days; for pest or weed control at 500 g/ha / pest or weed control at 1000 g/ha: Echinochloa crus-galli, post-emergence, 312 h, read-out: Control of weed species ECHCG after post-emergence application (100=total damage to plant; 0=no damage to plant); for pest or weed control at 500 g/ha: application rate 500 g/Ha. The gist of the method: as §1

The next assay relates to Lolium perenne (LOLPE). To be noted: evaluated after 13 days; for pest or weed control at 500 g/ha / pest or weed control at 1000 g/ha: Lolium perenne, post-emergence, 312 h, read-out: Control of weed species LOLPE after post-emergence application (100=total damage to plant; 0=no damage to plant); for pest or weed control at 500 g/ha: application rate 500 g/Ha. In outline:
as §1

As to `O=S(=O)([O-])CCC[n+]1cc(C(Cl)(Cl)Cl)c2ccccc2n1` [Compound A40], the pest or weed control at 500 g/ha in the assay on Eleusine indica (ELEIN) came out at 20%; in assay [1] it was 50%; in [2], 50%; in assay [3] it was 50%; in assay [4] it was 40%; with Setaria faberi (SETFA), 0%. Moreover, the pest or weed control at 500 g/ha worked out at 10% in [5], 30% in assay [6] and 0% with Lolium perenne (LOLPE).
Consider `O=S(=O)([O-])NCC[n+]1ccc2ccccc2n1` [Compound A41], for which the pest or weed control at 1000 g/ha in the assay on Eleusine indica (ELEIN) (application rate 1000 g/Ha) is 100%; in assay [1] (application rate 1000 g/Ha) it was 100%; in assay [2] (application rate 1000 g/Ha), 80%; in assay [3] (application rate 1000 g/Ha) it was 100%; in [4] (application rate 1000 g/Ha), 100%; in the assay on Setaria faberi (SETFA) (application rate 1000 g/Ha) it was 90%. For the same compound, the pest or weed control at 1000 g/ha in assay [5] (application rate 1000 g/Ha) came to 80%; in assay [6] (application rate 1000 g/Ha) it was 30%; in the assay with Lolium perenne (LOLPE) (application rate 1000 g/Ha), 70%.
Take `O=S(=O)(O)CC[n+]1ccc2cccc(I)c2n1` [Compound A42, 2-(8-iodocinnolin-2-ium-2-yl)ethanesulfonic acid 2,2,2-trifluoroacetate]: the pest or weed control at 1000 g/ha was 80% in the assay on Eleusine indica (ELEIN) (application rate 1000 g/Ha); 90% in assay [1] (application rate 1000 g/Ha); 70% in [2] (application rate 1000 g/Ha); 50% in assay [3] (application rate 1000 g/Ha); 50% in [4] (application rate 1000 g/Ha); 50% in the assay with Setaria faberi (SETFA) (application rate 1000 g/Ha). Further, the results for the pest or weed control at 1000 g/ha (in assay [5] (application rate 1000 g/Ha); in assay [6] (application rate 1000 g/Ha); with Lolium perenne (LOLPE) (application rate 1000 g/Ha)) were 40%, 20% and 10%, respectively.
Consider `CC(CC[n+]1ccc2ccccc2n1)S(=O)(=O)[O-]` (stereo not drawn) [Compound A43, 4-cinnolin-2-ium-2-ylbutane-2-sulfonate], for which the pest or weed control at 1000 g/ha in the assay on Eleusine indica (ELEIN) (application rate 1000 g/Ha) turned out to be 100%; in assay [1] (application rate 1000 g/Ha), 100%; in [2] (application rate 1000 g/Ha), 80%; in assay [3] (application rate 1000 g/Ha), 100%; in assay [4] (application rate 1000 g/Ha), 100%; in the assay on Setaria faberi (SETFA) (application rate 1000 g/Ha), 70%. The pest or weed control at 1000 g/ha in [5] (application rate 1000 g/Ha) stood at 80%; in assay [6] (application rate 1000 g/Ha), 70%; with Lolium perenne (LOLPE) (application rate 1000 g/Ha) it was 40%.
With `CSc1c[n+](CCS(=O)(=O)O)nc2ccccc12.O=C([O-])C(F)(F)F` [Compound A44], the “Control of weed species ELEIN after post-emergence application (100=total damage to plant; 0=no damage to plant)” value in the assay on Eleusine indica (ELEIN) (application rate 1000 g/Ha) is 70. Also, the “Control of weed species AMAPA after post-emergence application (100=total damage to plant; 0=no damage to plant)” value in assay [1] (application rate 1000 g/Ha) worked out at 30. Moreover, the “Control of weed species IPOHE after post-emergence application (100=total damage to plant; 0=no damage to plant)” value in assay [2] (application rate 1000 g/Ha) is 20. Further, the “Control of weed species CHEAL after post-emergence application (100=total damage to plant; 0=no damage to plant)” value in assay [3] (application rate 1000 g/Ha) amounted to 30. For the same compound, the “Control of weed species EPHHL after post-emergence application (100=total damage to plant; 0=no damage to plant)” value in assay [4] (application rate 1000 g/Ha) is listed as 90. Further, in the assay with Setaria faberi (SETFA) (application rate 1000 g/Ha), the “Control of weed species SETFA after post-emergence application (100=total damage to plant; 0=no damage to plant)” value is 30. The “Control of weed species DIGSA after post-emergence application (100=total damage to plant; 0=no damage to plant)” value in assay [5] (application rate 1000 g/Ha) is 30. The “Control of weed species ECHCG after post-emergence application (100=total damage to plant; 0=no damage to plant)” value in assay [6] (application rate 1000 g/Ha) was 10. Further, in the assay on Lolium perenne (LOLPE) (application rate 1000 g/Ha), the “Control of weed species LOLPE after post-emergence application (100=total damage to plant; 0=no damage to plant)” value is on record as 0.
`C[C@@H](C[n+]1ccc2ccccc2n1)NS(=O)(=O)[O-]` [Compound A45, N-[(1S)-2-cinnolin-2-ium-2-yl-1-methyl-ethyl]sulfamate]: the pest or weed control at 1000 g/ha with Eleusine indica (ELEIN) (application rate 1000 g/Ha) is 100%; in assay [1] (application rate 1000 g/Ha), 100%; in [2] (application rate 1000 g/Ha) it was 60%; in assay [3] (application rate 1000 g/Ha), 80%; in assay [4] (application rate 1000 g/Ha), 100%; in the assay on Setaria faberi (SETFA) (application rate 1000 g/Ha), 80%. Further, the values for the pest or weed control at 1000 g/ha (in assay [5] (application rate 1000 g/Ha); in assay [6] (application rate 1000 g/Ha); in the assay with Lolium perenne (LOLPE) (application rate 1000 g/Ha)) were 80%, 40% and 60%, respectively.
`C[C@H](C[n+]1ccc2ccccc2n1)NS(=O)(=O)[O-]` [Compound A46]: the pest or weed control at 1000 g/ha in the assay with Eleusine indica (ELEIN) (application rate 1000 g/Ha) was 90%; in assay [1] (application rate 1000 g/Ha), 100%; in assay [2] (application rate 1000 g/Ha), 70%; in assay [3] (application rate 1000 g/Ha), 70%; in assay [4] (application rate 1000 g/Ha), 100%; with Setaria faberi (SETFA) (application rate 1000 g/Ha), 60%. In addition, the values for the pest or weed control at 1000 g/ha (in assay [5] (application rate 1000 g/Ha); in assay [6] (application rate 1000 g/Ha); in the assay on Lolium perenne (LOLPE) (application rate 1000 g/Ha)) were 70%, 30% and 40%, respectively.
`O=S(=O)([O-])N1CCC[C@H]1C[n+]1ccc2ccccc2n1` [Compound A47]: the pest or weed control at 1000 g/ha with Eleusine indica (ELEIN) (application rate 1000 g/Ha) amounted to 90%; in assay [1] (application rate 1000 g/Ha), 100%; in [2] (application rate 1000 g/Ha), 20%; in assay [3] (application rate 1000 g/Ha) it was 60%; in assay [4] (application rate 1000 g/Ha), 60%; in the assay with Setaria faberi (SETFA) (application rate 1000 g/Ha), 40%. For the same compound, the values for the pest or weed control at 1000 g/ha (in [5] (application rate 1000 g/Ha); in assay [6] (application rate 1000 g/Ha); in the assay with Lolium perenne (LOLPE) (application rate 1000 g/Ha)) were 90%, 30% and 10%, respectively.
In the case of `O=S(=O)([O-])C[n+]1ccc2ccccc2n1` [Compound A48, cinnolin-2-ium-2-ylmethanesulfonate], the pest or weed control at 1000 g/ha with Eleusine indica (ELEIN) (application rate 1000 g/Ha) came to 90%; in assay [1] (application rate 1000 g/Ha), 100%; in assay [2] (application rate 1000 g/Ha) it was 100%; in assay [3] (application rate 1000 g/Ha) it was 80%; in assay [4] (application rate 1000 g/Ha) it was 100%; in the assay on Setaria faberi (SETFA) (application rate 1000 g/Ha) it was 70%. In addition, the pest or weed control at 1000 g/ha came out at 60% in [5] (application rate 1000 g/Ha), 40% in assay [6] (application rate 1000 g/Ha) and 70% in the assay with Lolium perenne (LOLPE) (application rate 1000 g/Ha).
With `C[C@H](CNS(=O)(=O)[O-])[n+]1ccc2ccccc2n1` [Compound A49], the pest or weed control at 1000 g/ha worked out at 90% in the assay on Eleusine indica (ELEIN) (application rate 1000 g/Ha); 100% in assay [1] (application rate 1000 g/Ha); 80% in [2] (application rate 1000 g/Ha); 90% in assay [3] (application rate 1000 g/Ha); 90% in assay [4] (application rate 1000 g/Ha); 60% with Setaria faberi (SETFA) (application rate 1000 g/Ha). In addition, the pest or weed control at 1000 g/ha amounted to 70% in assay [5] (application rate 1000 g/Ha), 60% in [6] (application rate 1000 g/Ha) and 50% in the assay on Lolium perenne (LOLPE) (application rate 1000 g/Ha).
With `C[C@@H](CNS(=O)(=O)[O-])[n+]1ccc2ccccc2n1` [Compound A50], the pest or weed control at 500 g/ha with Eleusine indica (ELEIN) was 20%; in assay [1] it was 80%; in assay [2], 40%; in [3], 70%; in [4], 60%; in the assay with Setaria faberi (SETFA), 20%. In addition, the pest or weed control at 500 g/ha in [5] worked out at 30%; in [6] it was 20%; in the assay with Lolium perenne (LOLPE) it was 20%.
